Measurements from paper PMC10400630, “Resensitizing multidrug-resistant Gram-negative bacteria to carbapenems and colistin using disulfiram” (Communications Biology, 2023).
Each block holds one compound with its values, some of them ahead of it. Positions of bridges follow the written chain, without caps; N, C: chain ends. Non-standard residues stand in square brackets, D forms with d. Residues, ends and D or L forms follow the SMILES beside them. *: point of attachment. Heptanoyl(5-Me) = CCC(C)CCCC(=O)*; Dab = NCC[C@H](N)C(=O)O

Legend:
[1] = test system: T1, E. coli B2; experiment: microbe, parasite or virus in culture; parameters: checkerboard broth microdilution, antibiotic alone, absorbance at 600 nm; conditions: antibiotic alone, without DSF; for MIC: Escherichia coli, B2
T1 construct: B2
Excerpt: (§1) The fractional inhibitory concentration index (FICI) value was used to evaluate the drug interaction of two compounds (A and B) and calculated as the sum of FICIA and FICIB. […] To validate the potentiation, we further evaluated these combinations on several types of Gram-negative bacteria, including drug-sensitive strains, MCR-producing Enterobacterales and MBL-positive Enterobacteriaceae.

[2] = target: T2, NDM-5 (Escherichia coli, UniProt G3K399); experiment: purified NDM-[…]) enzyme inhibition assay, absorbance at […] nm; type: biochemical
T2 construct: gene blaNDM-5

[3] = test system: NDM-positive E. coli C3; experiment: microbe, parasite or virus in culture; parameters: MIC of meropenem alone before serial passage (passage 0); conditions: Escherichia coli, read-out: MICs of MEM, - DSF
Procedure: To learn more about whether the addition of DSF contributes to preventing the development of antibiotic resistance, we carried out the serial passage assays in an NDM- or MCR-positive bacteria after exposure to meropenem/colistin, DSF and their combination. […] The mutation prevention index (MPI) was determined via the equation of MPC/MIC, which represents the opening of the mutant selection window (MSW, concentration range between MIC and MPC). When the MSW is narrower, drug-resistant strains are less likely to develop.

[4] = test system: T3, E. coli ATCC 25922; experiment: microbe, parasite or virus in culture; parameters: broth microdilution MIC of antibiotic alone (checkerboard assay); conditions: Escherichia coli, ATCC25922; colistin alone
T3 construct: ATCC 25922
Excerpt: as §1, with “Enterobacteriaceae. […] These NDM-positive Gram-negative pathogens carry blaNDM-1 or blaNDM-5 gene and are meropenem-resistant with MICs of 16-32 µg/mL. […] To explore the synergistic bactericidal activity of this combination, time-dependent killing curves for different MCR-positive Gram-negative bacteria were also determined.” for “Enterobacteriaceae.”

[5] = test system: T4, K. pneumoniae D120 (mcr-8); experiment: microbe, parasite or virus in culture; parameters: broth microdilution MIC of antibiotic alone (checkerboard assay); conditions: Klebsiella pneumoniae; colistin alone
T4 construct: D120 (mcr-8)
Excerpt: as §1, with “Enterobacteriaceae. […] These NDM-positive Gram-negative pathogens carry blaNDM-1 or blaNDM-5 gene and are meropenem-resistant with MICs of 16-32 µg/mL. […] To explore the synergistic bactericidal activity of this combination, time-dependent killing curves for different MCR-positive Gram-negative bacteria were also determined.” for “Enterobacteriaceae.”

[6] = test system: T5, E. coli G92 (mcr-1); experiment: microbe, parasite or virus in culture; parameters: broth microdilution MIC of antibiotic alone (checkerboard assay); conditions: Escherichia coli; colistin alone
T5 construct: G92 (mcr-1)
Excerpt: as §1, with “Enterobacteriaceae. […] These NDM-positive Gram-negative pathogens carry blaNDM-1 or blaNDM-5 gene and are meropenem-resistant with MICs of 16-32 µg/mL. […] To explore the synergistic bactericidal activity of this combination, time-dependent killing curves for different MCR-positive Gram-negative bacteria were also determined.” for “Enterobacteriaceae.”

[7] = test system: T6, E. coli DH5α (PUC19); experiment: microbe, parasite or virus in culture; parameters: broth microdilution MIC of antibiotic alone (checkerboard assay); conditions: Escherichia coli; colistin alone
T6 construct: DH5α (pUC19)
Excerpt: as §1, with “Enterobacteriaceae. […] These NDM-positive Gram-negative pathogens carry blaNDM-1 or blaNDM-5 gene and are meropenem-resistant with MICs of 16-32 µg/mL. […] To explore the synergistic bactericidal activity of this combination, time-dependent killing curves for different MCR-positive Gram-negative bacteria were also determined.” for “Enterobacteriaceae.”

[8] = test system: T7, S. enterica ATCC 13076; experiment: microbe, parasite or virus in culture; parameters: broth microdilution MIC of antibiotic alone (checkerboard assay); conditions: Salmonella enterica, ATCC13076; colistin alone
T7 construct: ATCC 13076
Excerpt: as §1, with “Enterobacteriaceae. […] These NDM-positive Gram-negative pathogens carry blaNDM-1 or blaNDM-5 gene and are meropenem-resistant with MICs of 16-32 µg/mL. […] To explore the synergistic bactericidal activity of this combination, time-dependent killing curves for different MCR-positive Gram-negative bacteria were also determined.” for “Enterobacteriaceae.”

[9] = test system: T1, E. coli B2; experiment: microbe, parasite or virus in culture; parameters: broth microdilution MIC of antibiotic alone (checkerboard assay); conditions: Escherichia coli, antibiotic alone
Excerpt: as §1, with “Enterobacteriaceae. […] These NDM-positive Gram-negative pathogens carry blaNDM-1 or blaNDM-5 gene and are meropenem-resistant with MICs of 16-32 µg/mL. […] To explore the synergistic bactericidal activity of this combination, time-dependent killing curves for different MCR-positive Gram-negative bacteria were also determined.” for “Enterobacteriaceae.”

[10] = test system: T8, E. coli CP131 (mcr-3); experiment: microbe, parasite or virus in culture; parameters: broth microdilution MIC of antibiotic alone (checkerboard assay); conditions: Escherichia coli; colistin alone
T8 construct: CP131 (mcr-3)
Excerpt: as §1, with “Enterobacteriaceae. […] These NDM-positive Gram-negative pathogens carry blaNDM-1 or blaNDM-5 gene and are meropenem-resistant with MICs of 16-32 µg/mL. […] To explore the synergistic bactericidal activity of this combination, time-dependent killing curves for different MCR-positive Gram-negative bacteria were also determined.” for “Enterobacteriaceae.”

T2 sequence (G3K399 29-270 limits assumed): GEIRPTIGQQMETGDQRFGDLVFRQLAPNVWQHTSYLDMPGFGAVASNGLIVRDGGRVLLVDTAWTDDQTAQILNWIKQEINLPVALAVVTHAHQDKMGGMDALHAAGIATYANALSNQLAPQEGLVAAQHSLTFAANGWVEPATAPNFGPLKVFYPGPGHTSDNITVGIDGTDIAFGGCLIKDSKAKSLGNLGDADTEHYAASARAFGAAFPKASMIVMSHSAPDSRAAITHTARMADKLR

SMILES: C[C@H]1c2cccc(O)c2C(=O)C2=C(O)[C@]3(O)C(=O)C(C(N)=O)=C(O)[C@@H](N(C)C)[C@@H]3[C@@H](O)[C@@H]21 [Doxycycline]
MIC [1]: 32 µg/mL

SMILES: CO[C@H]1/C=C/O[C@@]2(C)Oc3c(C)c(O)c4c(O)c(c(/C=N/N5CCN(C)CC5)c(O)c4c3C2=O)NC(=O)/C(C)=C\C=C\[C@H](C)[C@H](O)[C@@H](C)[C@@H](O)[C@@H](C)[C@H](OC(C)=O)[C@@H]1C [Rifampicin]
MIC^a [1]: 128 µg/mL

SMILES: CCN(CC)C(=S)SSC(=S)N(CC)CC [disulfiram]
IC50 [2]: 95.5 µM

SMILES: C[C@@H](O)[C@H]1C(=O)N2C(C(=O)O)=C(S[C@@H]3CN[C@H](C(=O)N(C)C)C3)[C@H](C)[C@H]12 [Meropenem]
MIC [1]: 32 µg/mL | MIC [3]: 8 µg/mL

MIC [1]: 64 µg/mL
SMILES: CN[C@H](CC(C)C)C(=O)N[C@H]1C(=O)N[C@@H](CC(N)=O)C(=O)N[C@H]2C(=O)N[C@H]3C(=O)N[C@H](C(=O)N[C@H](C(=O)O)c4cc(O)cc(O)c4-c4cc3ccc4O)[C@H](O)c3ccc(c(Cl)c3)Oc3cc2cc(c3O[C@@H]2O[C@H](CO)[C@@H](O)[C@H](O)[C@H]2O[C@H]2C[C@](C)(N)[C@H](O)[C@H](C)O2)Oc2ccc(cc2Cl)[C@H]1O [Vancomycin]

SMILES: CN(C)c1cc(NC(=O)CNC(C)(C)C)c(O)c2c1C[C@H]1C[C@H]3[C@H](N(C)C)C(O)=C(C(N)=O)C(=O)[C@@]3(O)C(O)=C1C2=O [Tigecycline]
MIC [1]: 0.5 µg/mL

SMILES: CCC(C)CCCC(=O)N[C@@H](CCN)C(=O)N[C@H](C(=O)N[C@@H](CCN)C(=O)N[C@H]1CCNC(=O)[C@H]([C@@H](C)O)NC(=O)[C@H](CCN)NC(=O)[C@H](CCN)NC(=O)[C@H](CC(C)C)NC(=O)[C@@H](CC(C)C)NC(=O)[C@H](CCN)NC1=O)[C@@H](C)O (stereo partly drawn) [Colistin] ({Heptanoyl(5-Me)}-[Dab]T[Dab][Dab][Dab][dL]L[Dab][Dab]T; lactam 4-C)
MIC [4]: 0.5 µg/mL | MIC [5]: 4 µg/mL | MIC [6]: 4 µg/mL | MIC [7]: 0.25 µg/mL | MIC [8]: 0.125 µg/mL | MIC [9]: 8 µg/mL | MIC [10]: 2 µg/mL
